This data set in a line: Intramuscular pharmacokinetic study of bulk compound 1 and chiral isomers. The class given is in vivo, male Sprague Dawley (SD) rats. The note with it: IM 20 mg/kg. Here is the method: In vivo pharmacokinetic study was performed in male Sprague Dawley (SD) rats (n=4). Intramuscular (IM) formulation of bulk of compound 1 as well as chiral isomer-1 and chiral isomer-2 was prepared by dissolving accurately weighed quantity of compound 1 (20 mg) in 1 mL of olive oil followed by vortexing for 2 min and sterilize through syringe filter. Blood samples were collected from the retro orbital plexus of rats under light ether anesthesia into microfuge tubes containing heparin as an anti-coagulant at 0.25, 0.5, 1, 3, 5, 7, 9, 24, 30, 48 and 72 hours post-dosing after intramuscular dose. Plasma sample was harvested by centrifuging the blood at 13000 rpm for 10 min on Sigma 1-15 K (Frankfurt, Germany) and stored frozen at −70±10° C. until bioanalysis. Each plasma sample (100 μl) was processed using protein precipitation method using 200 μl acetonitrile containing medicarpine as internal standard (I.S.) as protein precipitant, and 10 μl of the supernatant was injected for LC-MS/MS.

Where [1] appears, read: male, Sprague-Dawley, rat, plasma, mean ± S.D., n = 4.

This note sets out measurements from patent publication US20230234920A1, “Azirine Containing Compounds as Anti-Angiogenesis Agents and a Process for the Preparation Thereof” (COUNCIL OF SCIENTIFIC & INDUSTRIAL RESEARCH, priority 2020, published 2023).

Molecules are shown by their SMILES.

Under “mean ± S.D., n = 4”, `CCOC(=O)C1N=C1CCc1ccc(OC)cc1` (racemic) [Compound 1, Ethyl 3-(4-methoxyphenethyl)-2H-azirine-2-carboxylate] displayed a Cl of 3.4 ± 0.327 mL/min/kg and a Vd of 4.017 ± 0.868 L/kg. Further, the concentration at 0.25 h (male, Sprague-Dawley, rat, plasma, intramuscular, 0.25 h) worked out at 2910 ± 950 ng/mL. The concentration at 0.5 h (male, Sprague-Dawley, rat, plasma, intramuscular, 0.5 h) is 4440 ± 460 ng/mL. Under “male, Sprague-Dawley, rat, plasma, intramuscular, 1 h”, the concentration at 1 h is 3930 ± 1200 ng/mL. This compound displayed a concentration at 3 h (male, Sprague-Dawley, rat, plasma, intramuscular, 3 h) of 3240 ± 240 ng/mL. The same compound returned a concentration at 5 h (male, Sprague-Dawley, rat, plasma, intramuscular, 5 h) of 2830 ± 320 ng/mL. Where the note is “male, Sprague-Dawley, rat, plasma, intramuscular, 7 h”, this compound had a concentration at 7 h of 2390 ± 530 ng/mL. Further, where the note is “male, Sprague-Dawley, rat, plasma, intramuscular, 9 h”, the concentration at 9 h is 3210 ± 810 ng/mL. Under “male, Sprague-Dawley, rat, plasma, intramuscular, 24 h”, this compound yielded a concentration at 24 h of 1740 ± 240 ng/mL. Also, for the setting “male, Sprague-Dawley, rat, plasma, intramuscular, 30 h”, the concentration at 30 h worked out at 1660 ± 230 ng/mL. The concentration at 48 h (male, Sprague-Dawley, rat, plasma, intramuscular, 48 h) came to 262 ± 120 ng/mL. For the same compound, where the note is “male, Sprague-Dawley, rat, plasma, intramuscular, 72 h”, the concentration at 72 h stood at 107 ± 10 ng/mL. Under setting [1], this compound showed an AUC(0-inf) of 98600 ± 9400 ng·h/mL and a half-life of 13.5 ± 1.7 h. Further, the AUC(0-t) (male, Sprague-Dawley, rat, plasma, mean ± S.D., n = 4, read-out: AUC0-72) was 96400 ± 9850 ng·h/mL. In addition, the peak concentration (Cmax) (male, Sprague-Dawley, rat, plasma, mean ± S.D., n = 4, read-out: Cmax) is 4620 ± 435 ng/mL. The MRT (male, Sprague-Dawley, rat, plasma, mean ± S.D., n = 4, read-out: MRT) stood at 18 ± 1.57 h. The Tmax (male, Sprague-Dawley, rat, plasma, mean ± S.D., n = 4, read-out: Tmax) is 0.667 ± 0.288 h.

The term AUC(0-inf) denotes the area under the concentration-time curve extrapolated to infinity. Read a high AUC(0-inf) as more exposure. The half-life is how long it takes for the measured level to halve. Low readings indicate rapid decline, high ones slow decline. One may read the Cmax as the maximum level reached in the sampled fluid or tissue. In general, MRT refers to a mean duration of stay, worked out from the concentration-time curve. One may read the Tmax as the time at which the peak concentration occurs.
